In ChEMBL document CHEMBL4507329, “Data for DCP probe BTZO-1” (2021):

Legend:
[1] = target: Casein kinase II subunit alpha' (Homo sapiens) (UniProt P19784); details: Compound concentration 1000.0 nM
[2] = target: STE20/SPS1-related proline-alanine-rich protein kinase (Homo sapiens) (UniProt Q9UEW8); details: Compound concentration 1000.0 nM
[3] = target: Dual specificity mitogen-activated protein kinase kinase 4 (Homo sapiens) (UniProt P45985); details: Compound concentration 1000.0 nM
[4] = target: Ephrin type-B receptor 2 (Homo sapiens) (UniProt P29323); details: Compound concentration 1000.0 nM
[5] = target: Glycogen synthase kinase-3 alpha (Homo sapiens) (UniProt P49840); details: Compound concentration 1000.0 nM
[6] = target: Aurora kinase C (Homo sapiens) (UniProt Q9UQB9); details: Compound concentration 1000.0 nM
[7] = target: Phosphorylase b kinase regulatory subunit alpha, liver isoform (Homo sapiens) (UniProt P46019); details: Compound concentration 1000.0 nM
[8] = target: Calcium/calmodulin-dependent protein kinase kinase 1 (Homo sapiens) (UniProt Q8N5S9); details: Compound concentration 1000.0 nM
[9] = target: Serine/threonine-protein kinase WNK4 (Homo sapiens) (UniProt Q96J92); details: Compound concentration 1000.0 nM
[10] = target: Tyrosine-protein kinase Fgr (Homo sapiens) (UniProt P09769); details: Compound concentration 1000.0 nM
[11] = target: Ephrin type-B receptor 3 (Homo sapiens) (UniProt P54753); details: Compound concentration 1000.0 nM
[12] = target: Phosphatidylinositol 5-phosphate 4-kinase type-2 beta (Homo sapiens) (UniProt P78356); details: Compound concentration 1000.0 nM
[13] = target: 5-hydroxytryptamine receptor 2C (Homo sapiens) (UniProt P28335); details: Compound concentration 10.0 uM
[14] = target: Atypical kinase COQ8A, mitochondrial (Homo sapiens) (UniProt Q8NI60); details: Compound concentration 1000.0 nM
[15] = target: Phosphatidylinositol 4-phosphate 5-kinase type-1 gamma (Homo sapiens) (UniProt O60331); details: Compound concentration 1000.0 nM
[16] = tested on: Mast/stem cell growth factor receptor Kit (Homo sapiens), P10721 [D816H]; details: Compound concentration 1000.0 nM
[17] = target: Macrophage-stimulating protein receptor (Homo sapiens) (UniProt Q04912); details: Compound concentration 1000.0 nM
[18] = target: 5-hydroxytryptamine receptor 1A (Homo sapiens) (UniProt P08908); details: Compound concentration 10.0 uM
[19] = target: Alpha-2B adrenergic receptor (Homo sapiens) (UniProt P18089); details: Compound concentration 10.0 uM
[20] = target: 1-phosphatidylinositol 3-phosphate 5-kinase (Homo sapiens) (UniProt Q9Y2I7); details: Compound concentration 1000.0 nM
[21] = target: Calcium/calmodulin-dependent protein kinase type 1 (Homo sapiens) (UniProt Q14012); details: Compound concentration 1000.0 nM
[22] = tested on: Epidermal growth factor receptor (Homo sapiens), P00533 [L858R,T790M]; details: Compound concentration 1000.0 nM
[23] = tested on: Phosphatidylinositol 4,5-bisphosphate 3-kinase catalytic subunit alpha isoform (Homo sapiens), P42336 [M1043I]; details: Compound concentration 1000.0 nM
[24] = tested on: Epidermal growth factor receptor (Homo sapiens), P00533 [L858R]; details: Compound concentration 1000.0 nM
[25] = target: Misshapen-like kinase 1 (Homo sapiens) (UniProt Q8N4C8); details: Compound concentration 1000.0 nM
[26] = target: Mitogen-activated protein kinase kinase kinase 20 (Homo sapiens) (UniProt Q9NYL2); details: Compound concentration 1000.0 nM
[27] = target: Cyclin-dependent kinase 17 (Homo sapiens) (UniProt Q00537); details: Compound concentration 1000.0 nM
[28] = target: Tyrosine-protein kinase ZAP-70 (Homo sapiens) (UniProt P43403); details: Compound concentration 1000.0 nM
[29] = target: cAMP-dependent protein kinase catalytic subunit beta (Homo sapiens) (UniProt P22694); details: Compound concentration 1000.0 nM
[30] = target: MAP kinase-interacting serine/threonine-protein kinase 1 (Homo sapiens) (UniProt Q9BUB5); details: Compound concentration 1000.0 nM
[31] = tested on: Mast/stem cell growth factor receptor Kit (Homo sapiens), P10721 [V559D,V654A]; details: Compound concentration 1000.0 nM
[32] = target: Activated CDC42 kinase 1 (Homo sapiens) (UniProt Q07912); details: Compound concentration 1000.0 nM
[33] = target: Serine/threonine-protein kinase N1 (Homo sapiens) (UniProt Q16512); details: Compound concentration 1000.0 nM
[34] = target: Citron Rho-interacting kinase (Homo sapiens) (UniProt O14578); details: Compound concentration 1000.0 nM
[35] = target: Calcium/calmodulin-dependent protein kinase type II subunit alpha (Homo sapiens) (UniProt Q9UQM7); details: Compound concentration 1000.0 nM
[36] = target: Serine/threonine-protein kinase PAK 6 (Homo sapiens) (UniProt Q9NQU5); details: Compound concentration 1000.0 nM
[37] = target: Calcium/calmodulin-dependent protein kinase type 1D (Homo sapiens) (UniProt Q8IU85); details: Compound concentration 1000.0 nM
[38] = target: Mitogen-activated protein kinase 1 (Homo sapiens) (UniProt P28482); details: Compound concentration 1000.0 nM
[39] = target: Phosphorylase b kinase gamma catalytic chain, skeletal muscle/heart isoform (Homo sapiens) (UniProt Q16816); details: Compound concentration 1000.0 nM
[40] = target: MAP kinase-activated protein kinase 5 (Homo sapiens) (UniProt Q8IW41); details: Compound concentration 1000.0 nM
[41] = target: Tyrosine-protein kinase JAK2 (Homo sapiens) (UniProt O60674); details: Compound concentration 1000.0 nM
[42] = target: BDNF/NT-3 growth factors receptor (Homo sapiens) (UniProt Q16620); details: Compound concentration 1000.0 nM
[43] = target: T1, Macrophage migration inhibitory factor (Homo sapiens) (UniProt P14174); assay: ARE-Luc Reporter Assay (Activation of ARE (antioxidant response element)-mediated cytoprotective gene expression)
T1 sequence (whole entry): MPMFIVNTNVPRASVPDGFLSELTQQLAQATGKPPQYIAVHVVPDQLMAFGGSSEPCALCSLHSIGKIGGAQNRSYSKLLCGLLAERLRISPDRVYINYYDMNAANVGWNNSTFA

Sequence of Calcium/calmodulin-dependent protein kinase type II subunit alpha (Homo sapiens) (Q9UQM7 whole entry): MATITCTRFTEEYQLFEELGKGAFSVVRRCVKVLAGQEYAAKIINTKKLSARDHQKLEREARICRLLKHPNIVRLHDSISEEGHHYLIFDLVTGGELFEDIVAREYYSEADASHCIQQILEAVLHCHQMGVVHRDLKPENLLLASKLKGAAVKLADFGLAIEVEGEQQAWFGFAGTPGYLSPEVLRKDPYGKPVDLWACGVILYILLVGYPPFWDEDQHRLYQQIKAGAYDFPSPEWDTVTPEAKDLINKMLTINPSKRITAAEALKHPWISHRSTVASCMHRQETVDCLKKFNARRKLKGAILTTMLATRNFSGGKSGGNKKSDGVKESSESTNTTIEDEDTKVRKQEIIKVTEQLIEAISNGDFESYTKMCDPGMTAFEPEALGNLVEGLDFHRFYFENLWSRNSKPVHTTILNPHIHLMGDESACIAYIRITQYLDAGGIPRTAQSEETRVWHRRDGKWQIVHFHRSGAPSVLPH
Sequence of Serine/threonine-protein kinase N1 (Homo sapiens) (Q16512 2-942 limits assumed): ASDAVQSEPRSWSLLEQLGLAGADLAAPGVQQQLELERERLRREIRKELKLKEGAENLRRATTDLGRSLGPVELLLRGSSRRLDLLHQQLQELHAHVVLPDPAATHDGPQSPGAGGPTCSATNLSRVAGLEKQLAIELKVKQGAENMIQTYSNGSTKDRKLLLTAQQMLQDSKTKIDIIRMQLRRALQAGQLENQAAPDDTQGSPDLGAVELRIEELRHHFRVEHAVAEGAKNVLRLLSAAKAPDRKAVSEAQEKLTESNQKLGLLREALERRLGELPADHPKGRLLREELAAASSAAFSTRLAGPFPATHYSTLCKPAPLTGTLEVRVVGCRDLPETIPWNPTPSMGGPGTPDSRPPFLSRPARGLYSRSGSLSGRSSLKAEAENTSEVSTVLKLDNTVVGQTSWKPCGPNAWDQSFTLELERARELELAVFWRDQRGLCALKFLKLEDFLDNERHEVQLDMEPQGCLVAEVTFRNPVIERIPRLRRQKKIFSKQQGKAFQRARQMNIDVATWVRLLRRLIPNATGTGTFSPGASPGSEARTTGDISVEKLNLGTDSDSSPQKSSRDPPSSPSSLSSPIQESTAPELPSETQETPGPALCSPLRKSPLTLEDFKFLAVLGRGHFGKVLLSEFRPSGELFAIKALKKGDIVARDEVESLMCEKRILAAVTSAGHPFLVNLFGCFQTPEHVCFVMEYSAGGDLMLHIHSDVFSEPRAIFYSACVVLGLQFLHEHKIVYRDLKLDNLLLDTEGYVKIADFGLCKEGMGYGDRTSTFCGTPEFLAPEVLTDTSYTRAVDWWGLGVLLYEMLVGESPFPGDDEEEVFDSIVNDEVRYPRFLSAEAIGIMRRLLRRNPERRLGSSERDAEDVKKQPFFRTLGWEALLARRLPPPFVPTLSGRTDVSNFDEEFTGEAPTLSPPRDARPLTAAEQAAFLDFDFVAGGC
Sequence of Calcium/calmodulin-dependent protein kinase type 1D (Homo sapiens) (Q8IU85 whole entry, looked up): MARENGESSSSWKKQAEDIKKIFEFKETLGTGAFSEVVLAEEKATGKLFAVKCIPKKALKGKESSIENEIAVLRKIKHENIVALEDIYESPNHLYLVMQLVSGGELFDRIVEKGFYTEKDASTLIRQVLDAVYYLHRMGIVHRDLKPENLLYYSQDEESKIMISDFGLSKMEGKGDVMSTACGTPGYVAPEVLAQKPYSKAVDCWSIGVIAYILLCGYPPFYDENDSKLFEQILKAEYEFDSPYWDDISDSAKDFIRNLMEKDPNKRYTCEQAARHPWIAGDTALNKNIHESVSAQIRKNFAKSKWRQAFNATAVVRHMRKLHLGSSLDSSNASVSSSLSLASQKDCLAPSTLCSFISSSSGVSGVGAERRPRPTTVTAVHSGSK
Sequence of Activated CDC42 kinase 1 (Homo sapiens) (Q07912 whole entry, looked up): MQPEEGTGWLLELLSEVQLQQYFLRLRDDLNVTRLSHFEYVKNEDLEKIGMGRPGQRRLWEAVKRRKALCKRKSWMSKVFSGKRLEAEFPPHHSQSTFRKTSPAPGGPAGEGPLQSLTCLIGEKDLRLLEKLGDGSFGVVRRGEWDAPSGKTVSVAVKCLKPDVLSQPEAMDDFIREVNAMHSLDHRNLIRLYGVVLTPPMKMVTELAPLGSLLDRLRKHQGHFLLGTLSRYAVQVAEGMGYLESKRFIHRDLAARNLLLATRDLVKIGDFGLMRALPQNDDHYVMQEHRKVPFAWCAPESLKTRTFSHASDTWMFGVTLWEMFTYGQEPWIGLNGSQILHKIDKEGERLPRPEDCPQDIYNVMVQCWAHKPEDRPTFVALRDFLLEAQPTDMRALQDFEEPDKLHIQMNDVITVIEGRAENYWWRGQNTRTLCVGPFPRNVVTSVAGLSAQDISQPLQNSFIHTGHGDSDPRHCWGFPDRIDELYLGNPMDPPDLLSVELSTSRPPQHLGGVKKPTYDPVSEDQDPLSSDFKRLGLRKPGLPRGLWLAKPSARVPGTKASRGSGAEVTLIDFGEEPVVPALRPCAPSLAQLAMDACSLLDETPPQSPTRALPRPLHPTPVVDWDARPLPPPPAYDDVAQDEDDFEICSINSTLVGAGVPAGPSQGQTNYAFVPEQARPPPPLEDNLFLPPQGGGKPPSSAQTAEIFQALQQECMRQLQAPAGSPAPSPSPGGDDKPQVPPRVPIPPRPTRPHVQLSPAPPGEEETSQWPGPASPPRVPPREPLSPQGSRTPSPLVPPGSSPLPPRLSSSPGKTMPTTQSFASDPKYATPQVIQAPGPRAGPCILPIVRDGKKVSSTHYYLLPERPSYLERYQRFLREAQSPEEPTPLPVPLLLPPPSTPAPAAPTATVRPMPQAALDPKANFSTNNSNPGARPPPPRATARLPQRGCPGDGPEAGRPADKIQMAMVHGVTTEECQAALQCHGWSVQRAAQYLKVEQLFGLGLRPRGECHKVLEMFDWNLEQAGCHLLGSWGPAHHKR
Sequence of Phosphatidylinositol 5-phosphate 4-kinase type-2 beta (Homo sapiens) (P78356 whole entry): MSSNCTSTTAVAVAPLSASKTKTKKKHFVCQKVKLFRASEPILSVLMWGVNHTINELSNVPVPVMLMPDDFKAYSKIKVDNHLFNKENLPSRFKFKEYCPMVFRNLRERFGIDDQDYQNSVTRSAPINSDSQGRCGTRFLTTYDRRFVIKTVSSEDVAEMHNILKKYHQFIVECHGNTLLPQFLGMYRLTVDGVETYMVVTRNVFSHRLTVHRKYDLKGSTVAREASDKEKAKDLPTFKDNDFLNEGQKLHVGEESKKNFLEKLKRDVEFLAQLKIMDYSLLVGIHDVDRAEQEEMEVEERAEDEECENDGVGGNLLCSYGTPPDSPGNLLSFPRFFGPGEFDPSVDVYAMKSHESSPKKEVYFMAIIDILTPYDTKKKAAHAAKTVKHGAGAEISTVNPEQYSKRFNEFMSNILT
Sequence of BDNF/NT-3 growth factors receptor (Homo sapiens) (Q16620 32-822 limits assumed): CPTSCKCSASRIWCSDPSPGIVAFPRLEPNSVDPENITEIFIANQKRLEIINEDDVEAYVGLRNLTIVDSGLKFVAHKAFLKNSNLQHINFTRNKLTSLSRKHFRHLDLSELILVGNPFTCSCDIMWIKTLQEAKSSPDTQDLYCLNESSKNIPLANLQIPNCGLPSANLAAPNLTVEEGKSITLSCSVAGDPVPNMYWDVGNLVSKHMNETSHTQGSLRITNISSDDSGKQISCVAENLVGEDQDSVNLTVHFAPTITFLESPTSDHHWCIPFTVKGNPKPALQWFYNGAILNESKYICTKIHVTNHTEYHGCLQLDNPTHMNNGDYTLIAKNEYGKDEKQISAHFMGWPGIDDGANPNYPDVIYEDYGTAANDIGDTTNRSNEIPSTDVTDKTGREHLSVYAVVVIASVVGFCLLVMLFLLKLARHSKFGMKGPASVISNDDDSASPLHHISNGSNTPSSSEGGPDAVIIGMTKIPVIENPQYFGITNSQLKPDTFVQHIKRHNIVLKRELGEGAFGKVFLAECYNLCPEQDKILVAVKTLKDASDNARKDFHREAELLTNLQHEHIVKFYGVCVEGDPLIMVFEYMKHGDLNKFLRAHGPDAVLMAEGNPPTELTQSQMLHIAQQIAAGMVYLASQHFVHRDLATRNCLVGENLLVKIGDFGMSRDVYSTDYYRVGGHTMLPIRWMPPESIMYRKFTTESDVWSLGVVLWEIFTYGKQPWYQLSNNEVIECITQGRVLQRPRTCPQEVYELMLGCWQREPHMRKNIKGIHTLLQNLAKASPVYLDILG
Sequence of Serine/threonine-protein kinase PAK 6 (Homo sapiens) (Q9NQU5 whole entry, looked up): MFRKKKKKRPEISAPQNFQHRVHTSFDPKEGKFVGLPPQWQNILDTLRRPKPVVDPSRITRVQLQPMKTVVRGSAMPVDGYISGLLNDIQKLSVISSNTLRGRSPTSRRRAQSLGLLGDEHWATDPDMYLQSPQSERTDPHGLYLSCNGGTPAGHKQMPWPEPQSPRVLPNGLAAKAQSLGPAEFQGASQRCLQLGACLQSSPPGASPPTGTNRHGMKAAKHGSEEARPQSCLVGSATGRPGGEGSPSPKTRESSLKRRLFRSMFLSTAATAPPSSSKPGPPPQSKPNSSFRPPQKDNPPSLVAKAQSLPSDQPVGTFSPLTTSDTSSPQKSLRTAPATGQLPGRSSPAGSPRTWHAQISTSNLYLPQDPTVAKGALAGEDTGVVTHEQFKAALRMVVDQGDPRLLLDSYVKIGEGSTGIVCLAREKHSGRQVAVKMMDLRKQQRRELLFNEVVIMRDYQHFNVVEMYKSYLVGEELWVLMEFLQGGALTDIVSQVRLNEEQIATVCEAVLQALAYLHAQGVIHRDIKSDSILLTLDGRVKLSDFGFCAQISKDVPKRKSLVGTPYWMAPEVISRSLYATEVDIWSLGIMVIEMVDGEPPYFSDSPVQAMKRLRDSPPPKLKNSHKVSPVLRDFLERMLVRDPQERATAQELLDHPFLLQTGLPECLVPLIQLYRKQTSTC
Sequence of Aurora kinase C (Homo sapiens) (Q9UQB9 whole entry, canonical isoform): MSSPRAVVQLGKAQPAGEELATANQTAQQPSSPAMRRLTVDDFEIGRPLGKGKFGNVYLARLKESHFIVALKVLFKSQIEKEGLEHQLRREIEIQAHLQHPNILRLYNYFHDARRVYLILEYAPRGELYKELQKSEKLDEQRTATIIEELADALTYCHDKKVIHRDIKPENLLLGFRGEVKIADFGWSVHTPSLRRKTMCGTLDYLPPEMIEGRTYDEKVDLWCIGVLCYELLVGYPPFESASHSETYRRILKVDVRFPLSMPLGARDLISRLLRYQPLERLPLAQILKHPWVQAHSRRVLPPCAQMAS

In the case of `O=c1nc(-c2ccccn2)sc2ccccc12` [BTZO-1], the residual activity [1] is reported as 92%, the residual activity [2] is reported as 100% and the residual activity [3] is reported as 100%. The residual activity [4] was 100%, the residual activity [5] was 82% and the residual activity [6] was 97%. The residual activity [7] was 77%, the residual activity [8] was 96% and the residual activity [9] was 100%. For the same compound, the residual activity [10] was 100%, the residual activity [11] was 100% and the residual activity [12] was 100%. The inhibition [13] was 12.2%, the residual activity [14] was 88% and the residual activity [15] was 84%. It also gave a residual activity [16] of 92%, a residual activity [17] of 100% and an inhibition [18] of 9.69%. It also gave an inhibition [19] of 17%, a residual activity [20] of 100% and a residual activity [21] of 92%. The residual activity [22] was 100%, the residual activity [23] was 100% and the residual activity [24] was 81%. It also gave a residual activity [25] of 83%, a residual activity [26] of 87% and a residual activity [27] of 100%. The residual activity [28] was 100%, the residual activity [29] was 92% and the residual activity [30] was 89%. It also gave a residual activity [31] of 100%, a residual activity [32] of 100% and a residual activity [33] of 77%. For the same compound, the residual activity [34] was 100%, the residual activity [35] was 100% and the residual activity [36] was 100%. It also gave a residual activity [37] of 90%, a residual activity [38] of 91% and a residual activity [39] of 84%. For the same compound, the residual activity [40] was 92%, the residual activity [41] was 100% and the residual activity [42] was 96%. It also gave an MEC2.0 [43] of 820 nM.
Work on `O=C1NC(c2ccccn2)Sc2ccccc21` (configuration not stated) [BTZO-4] yielded a residual activity [1] of 100%, a residual activity [2] of 89% and a residual activity [3] of 93%. The residual activity [4] was 71%, the residual activity [5] was 73% and the residual activity [6] was 90%. For the same compound, the residual activity [7] was 73%, the residual activity [8] was 88% and the residual activity [9] was 100%. For the same compound, the residual activity [10] was 100%, the residual activity [11] was 80% and the residual activity [12] was 100%. The inhibition [13] was 3.98%, the residual activity [14] was 98% and the residual activity [15] was 77%. For the same compound, the residual activity [16] was 79%, the residual activity [17] was 100% and the inhibition [18] was 24.7%. It also gave an inhibition [19] of -5.58%, a residual activity [20] of 100% and a residual activity [21] of 91%. For the same compound, the residual activity [22] was 100%, the residual activity [23] was 74% and the residual activity [24] was 86%. For the same compound, the residual activity [25] was 72%, the residual activity [26] was 100% and the residual activity [27] was 100%. The residual activity [28] was 90%, the residual activity [29] was 97% and the residual activity [30] was 82%. It also gave a residual activity [31] of 87%, a residual activity [32] of 100% and a residual activity [33] of 60%. The residual activity [34] was 96%, the residual activity [35] was 100% and the residual activity [36] was 100%. The residual activity [37] was 82%, the residual activity [38] was 89% and the residual activity [39] was 76%. For the same compound, the residual activity [40] was 73%, the residual activity [41] was 84% and the residual activity [42] was 87%. It also gave an MEC1.5 [43] greater than 1 µM and an MEC2.0 [43] greater than 10000 nM.
